Legend:
C57BL/6 mice [1] = experiment: Serum osteocalcin (biochemical marker of bone formation) measured by EIA Elisa in mice treated daily i.p. for 30 days; type: in vivo; conditions: four month old male C57BL/6 mice, fraction
Experimental: (§1) Four month old male C57BL/6 mice were treated daily with saline vehicle or the sclerostin inhibitor of Formula Ib:
(§2) [drawing 9] at low, mid, or high doses (via i.p) for 30 days. Study endpoints included a biochemical marker of bone formation, osteocalcin measured by EIA Elisa, and measurement of trabecular bone volume by mico-CT analysis on the proximal tibia.

C57BL/6 mice [2] = experiment: Trabecular bone volume by micro-CT analysis on the proximal tibia in mice treated daily i.p. for 30 days; type: in vivo; conditions: four month old male C57BL/6 mice
Experimental: as §1, §2

In the case of `O=C1CCCN1c1ccccc1O` [Formula Ib], the “increase in serum osteocalcin over baseline” value (“increase in serum osteocalcin” below) (C57BL/6 mice [1]; 0.5 mg/kg (C), also printed as 4%) is reported as 0.04, the “increase in serum osteocalcin” value (C57BL/6 mice [1]; 2 mg/kg (B), also printed as 24%) is reported as 0.24 and the “increase in serum osteocalcin” value (C57BL/6 mice [1]; 10 mg/kg (A), also printed as 27%) is reported as 0.27. For the same compound, the “percent change in tibia long bone volume increase versus saline controls” value (C57BL/6 mice [2]; 0.5 mg/kg (C)) was 13%, the “percent change in tibia long bone volume increase versus saline controls” value (C57BL/6 mice [2]; 2 mg/kg (B)) was 40% and the “percent change in tibia long bone volume increase versus saline controls” value (C57BL/6 mice [2]; 10 mg/kg (A)) was 69%.

From US8080575B2, “Gamma-lactam compounds for promoting bone growth” (Osteogenex Inc., priority 2008, dated 2011)
